From patent US8058283B2, “7H-pyrido[3,4-D]pyrimidin-8-ones, their manufacture and use as protein kinase inhibitors” (Hoffmann-La Roche Inc., priority 2006, dated 2011)

Legend:
Assay type in all cases: biochemical
[1] = target: human recombinant PDGFR beta (Homo sapiens, UniProt P09619); assay: IC50 determination for inhibitors of PDGFR kinase (IMAP fluorescence polarization); conditions: 48 uM ATP, room temperature, 60 minutes; read-out: IC50 PDGFR kinase inhibition
Description: IC50 Determination for Inhibitors of PDGFR Kinase Assay Principle
PDGFR assay was carried out with human recombinant PDGFR beta, fluorescein labeled peptide substrate (with a peptide sequence of ALTSNQEYLDLSMPL) and test compounds (in serial dilution) using 384-well plates. Kinase reaction was performed in MOPS buffer (20 mM MOPS pH 7.1, 5 mM Sodium Acetate, 6.25 mM MgCl2, 0.5 mM EDTA, 1 mM DTT, 0.04 mM NaVO4, 0.02% BSA), in the presence of 48 uM ATP, incubated at room temperature for 60 minutes. Reaction was stopped by IMAP Bead Binding System (Molecular Devices). After incubation at room temperature for 2 hours, the reaction product was analyzed on LJL Acquest.
(§1) FP reading (in mP) was used to calculate reaction rate. The assay was semi-automated by Tomtec Quadra workstation.

[2] = target: T1, mouse Abl (27-end) fusion protein (Mus musculus, UniProt P00520); assay: IC50 determination for inhibitors of Abl kinase (IMAP fluorescence polarization); conditions: 22.8 uM ATP, 37° C., 60 minutes; read-out: IC50 Abl kinase inhibition
T1 construct: fusion protein corresponding to mouse Abl (27-end)
T1 sequence (P00520 27-1123 limits assumed): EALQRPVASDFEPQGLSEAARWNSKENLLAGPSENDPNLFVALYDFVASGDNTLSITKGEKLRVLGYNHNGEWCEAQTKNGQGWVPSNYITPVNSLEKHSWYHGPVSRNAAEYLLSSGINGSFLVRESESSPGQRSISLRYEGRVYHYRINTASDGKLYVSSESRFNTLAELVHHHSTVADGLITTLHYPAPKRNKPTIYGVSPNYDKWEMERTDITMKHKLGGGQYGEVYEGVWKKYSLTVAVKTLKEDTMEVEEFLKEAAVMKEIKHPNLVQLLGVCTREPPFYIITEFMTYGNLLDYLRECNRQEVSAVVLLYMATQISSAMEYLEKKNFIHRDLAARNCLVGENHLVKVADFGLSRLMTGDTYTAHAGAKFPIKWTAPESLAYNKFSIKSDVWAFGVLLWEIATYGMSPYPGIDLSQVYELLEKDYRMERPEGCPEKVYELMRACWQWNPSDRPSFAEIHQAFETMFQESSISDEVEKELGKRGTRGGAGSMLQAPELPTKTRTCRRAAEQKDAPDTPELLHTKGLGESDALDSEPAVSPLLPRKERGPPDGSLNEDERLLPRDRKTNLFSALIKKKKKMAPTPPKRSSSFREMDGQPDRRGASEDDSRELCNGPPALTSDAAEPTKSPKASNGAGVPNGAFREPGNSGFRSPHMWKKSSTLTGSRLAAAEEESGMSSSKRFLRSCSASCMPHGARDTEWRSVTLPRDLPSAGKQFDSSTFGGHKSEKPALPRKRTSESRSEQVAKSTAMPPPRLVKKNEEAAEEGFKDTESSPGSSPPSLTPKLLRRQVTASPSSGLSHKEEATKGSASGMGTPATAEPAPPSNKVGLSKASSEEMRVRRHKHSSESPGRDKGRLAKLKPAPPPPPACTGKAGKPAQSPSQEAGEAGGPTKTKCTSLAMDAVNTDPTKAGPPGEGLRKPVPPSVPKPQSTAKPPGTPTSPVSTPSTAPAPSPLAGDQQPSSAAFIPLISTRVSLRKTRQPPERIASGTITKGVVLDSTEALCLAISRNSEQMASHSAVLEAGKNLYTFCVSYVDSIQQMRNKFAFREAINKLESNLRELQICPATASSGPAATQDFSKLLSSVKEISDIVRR
Description: IC50 Determination for Inhibitors of Abl Kinase
Abl assay was done using fusion protein corresponding to mouse Abl (27-end) fluorescein labeled peptide substrate (with a sequence of EAIYAAPFAKKK) and quantified by Molecular Devices' IMAP fluorescence polarization technology. Compounds were tested in serially diluted concentrations in 384 well plates. Kinase reaction was performed in KAB Buffer (10 mM HEPES, pH 7, 50 mM NaCl, 5 mM MgCl2, 1 mM DTT, 0.1 mM NaVO4, 0.02% BSA), in the presence of 22.8 uM ATP, incubated at 37° C. for 60 minutes. Reaction was stopped by IMAP bead mix (at 1:400 diluted). After incubation at room temperature for 3 hours, the reaction product was analyzed on LJL Acquest (excitation 485 nm and Emission 530 nm).
as §1

Src (p60c-src) = target: T2, Src (p60c-src) (Homo sapiens, UniProt P12931); assay: Src-Inhibitor-Assay (time-resolved fluorescence); conditions: ATP 5 μM; enzyme pre-incubated 15 min at 15° C. with inhibitor
T2 construct: purchased UBI, Upstate Biotech, Inc
T2 sequence (P12931 whole entry): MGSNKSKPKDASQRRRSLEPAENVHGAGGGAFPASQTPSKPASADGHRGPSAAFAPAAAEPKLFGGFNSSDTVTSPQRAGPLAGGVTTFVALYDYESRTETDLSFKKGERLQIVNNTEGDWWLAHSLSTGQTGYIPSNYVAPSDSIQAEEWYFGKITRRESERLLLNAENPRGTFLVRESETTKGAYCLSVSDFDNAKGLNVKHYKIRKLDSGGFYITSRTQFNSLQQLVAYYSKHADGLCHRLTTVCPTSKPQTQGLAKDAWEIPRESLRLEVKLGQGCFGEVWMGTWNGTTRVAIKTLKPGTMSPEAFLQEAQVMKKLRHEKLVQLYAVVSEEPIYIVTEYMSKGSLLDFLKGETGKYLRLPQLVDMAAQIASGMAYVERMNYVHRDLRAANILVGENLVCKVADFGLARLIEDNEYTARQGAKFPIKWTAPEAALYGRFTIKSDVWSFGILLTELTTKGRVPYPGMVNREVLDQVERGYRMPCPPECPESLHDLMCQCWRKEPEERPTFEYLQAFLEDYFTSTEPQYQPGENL
Description: Src-Inhibitor-Assay Parameters:
• ATP 5 μM • Peptide (Ro+Ja133-Ro): 10 μM • Ja133-Ro 196 nM • Ro 9.8 μM • PT66 230 ng/ml • Assay buffer: 4 mM MgCl2 • 2 mM TCEP • 50 mM HEPES • 0.1% Tween 20 • pH 7.3 • Enzyme: 2.5 U/ml • Inhibitor: max. 25 μM • min. 0.42 nM Material: • Eu-labelled phosphotyrosine antibody: —for Lck Cisbio Mab PT66-K, • for Src EG&G Wallac PT66 Eu-W1024 (all commercially available). • Peptides: Ro: NH2-A-E-E-E-I-Y-G-E-F-E-A-K-K-K-K-CONH2, and • Ja133-Ro: Ja133-G-Aminocaprylic acid-A-E-E-E-I-Y-G-E-F-E-A-K-K-K-K-CONH2, wherein Ja133 is LightCycler-Red 640-N-hydroxy succinimide ester; • whereby both peptides were synthesized by an optimized solid phase peptide synthesis protocol (Merrifield, Fed. Proc. Fed. Amer. Soc. Exp. Biol. 21 (1962) 412) on a Zinsser SMP350 peptide synthesizer. Shortly, the peptide was assembled on 160 mg (22.8 μmol scale) of a Rink-Linker modified polystyrene solid phase by repeatedly conjugating an twenty fold excess of amino acids each protected by temporary piperidine labile Fmoc- and permanent acid labile tert-Bu-, BOC- and O-tert-Bu-groups depending on the side chain function. The substrate sequence AEEEIYGEFEAKKKK was N-terminal additionally mounted with the spacer amino acids Aminocaprylic acid and Glycin. After cleavage of the N-terminal temporary protecting group the still attached and protected peptide was labeled with a 1.5 fold amount of LightCycler-Red 640-N-hydroxy succinimide ester (purchased from Roche Diagnostics GmbH) and triethylamine. After 3 hrs. the resin was washed with Dimethylformamide and Isopropanol until the eluates of the blue resin got colourless. […] The substrate was finally isolated by a preparative reverse phase HPLC purification. The purification yielded 12.2 mg RP-HPLC single peak pure blue material (lyophilisate). The identity was proven by MALDI mass spectroscopy [2720.0]. • Enzymes: Upstate Lck (p56^lck, active), Upstate Src (p60^c-src, partially purified) were purchased from UBI, Upstate Biotech, Inc. Time-resolved Fluorescence Assay: Reader: Perkin Elmer, Wallac Viktor 1420-040 multilabel counter; Liquid handling system: Beckman Coulter, Biomek 2000.
ATP, Tween™ 20, 4-(2-hydroxyethyl)-1-piperazineethanesulfonic acid (HEPES) were purchased from Roche Molecular Biochemicals, MgCl2 and MnCl2 were purchased from Merck Eurolab, Tris(2-carboxyethyl)phosphine hydrochloride (TCEP) was purchased from Pierce, 384 Well low volume fluorescence plates was purchased from Falcon.
At first the enzyme is pre-incubated for 15 min. at 15° C. in aqueous solution with corresponding amounts of inhibitors according to this invention. Then the phosphorylation reaction is started by adding a reaction mixture, containing ATP, Peptide and PT66, and subsequent shaking. The proceeding of this reaction is immediately monitored using time resolved fluorescence spectroscopy in a suitable well plate reader.
The IC50-values can be obtained from the reaction rates by using a non-linear curve fit (XLfit software (ID Business Solution Ltd., Guilford, Surrey, UK)).

Chain of human recombinant PDGFR beta (P09619 33-1106): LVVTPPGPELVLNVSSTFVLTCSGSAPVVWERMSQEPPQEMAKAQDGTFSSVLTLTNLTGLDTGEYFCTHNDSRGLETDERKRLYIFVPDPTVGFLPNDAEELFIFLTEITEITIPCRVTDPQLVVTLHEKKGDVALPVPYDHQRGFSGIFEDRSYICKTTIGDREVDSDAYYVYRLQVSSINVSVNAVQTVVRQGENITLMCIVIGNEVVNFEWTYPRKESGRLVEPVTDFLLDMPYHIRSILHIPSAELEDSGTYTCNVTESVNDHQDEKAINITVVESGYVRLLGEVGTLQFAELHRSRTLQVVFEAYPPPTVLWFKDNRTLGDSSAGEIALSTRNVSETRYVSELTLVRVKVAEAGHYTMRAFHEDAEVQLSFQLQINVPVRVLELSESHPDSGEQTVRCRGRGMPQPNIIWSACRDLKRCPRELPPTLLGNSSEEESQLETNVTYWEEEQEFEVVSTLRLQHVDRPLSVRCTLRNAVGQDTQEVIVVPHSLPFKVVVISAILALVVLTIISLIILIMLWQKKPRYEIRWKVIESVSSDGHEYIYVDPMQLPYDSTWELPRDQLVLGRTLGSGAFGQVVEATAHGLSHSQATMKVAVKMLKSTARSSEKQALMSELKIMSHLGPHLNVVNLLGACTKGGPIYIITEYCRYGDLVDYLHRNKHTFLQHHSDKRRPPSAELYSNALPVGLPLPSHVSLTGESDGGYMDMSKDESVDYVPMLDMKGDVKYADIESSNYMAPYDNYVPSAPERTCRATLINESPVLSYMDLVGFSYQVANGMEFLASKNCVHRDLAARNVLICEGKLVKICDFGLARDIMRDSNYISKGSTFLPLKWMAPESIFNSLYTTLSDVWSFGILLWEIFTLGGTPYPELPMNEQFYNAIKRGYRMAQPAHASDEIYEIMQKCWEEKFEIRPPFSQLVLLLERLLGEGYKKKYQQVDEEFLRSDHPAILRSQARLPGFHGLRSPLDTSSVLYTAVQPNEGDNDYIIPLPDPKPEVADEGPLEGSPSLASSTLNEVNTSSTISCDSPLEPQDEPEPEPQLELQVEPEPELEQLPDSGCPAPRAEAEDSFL

Row | IC50 [1] | IC50 [2] | IC50 (Src (p60c-src)) | Compound
1 | 500 to 15000 nM | 1 to 500 nM | 1 to 500 nM | COc1cccc(Cn2c(-c3ccccc3C)cc3cnc(Nc4ccc(N5CCN(C)CC5)cc4)nc3c2=O)c1 [Example 20, 7-(3-Methoxy-benzyl)-2-[4-(4-methyl-piperazin-1-yl)-phenylamino]-6-o-tolyl-7H-pyrido[3,4-d]pyrimidin-8-one]
2 | 500 to 15000 nM | 1 to 500 nM | 1 to 500 nM | Cc1cc(Cn2c(-c3ccccc3Cl)cc3cnc(Nc4ccc(N5CCN(C)CC5)cc4)nc3c2=O)nn1C [Example 30, 6-(2-Chloro-phenyl)-7-(1,5-dimethyl-1H-pyrazol-3-ylmethyl)-2-[4-(4-methyl-piperazin-1-yl)-phenylamino]-7H-pyrido[3,4-d]pyrimidin-8-one]
3 |  | 1 to 500 nM | 1 to 500 nM | COc1cccc(Cn2c(-c3ccccc3Cl)cc3cnc(Nc4ccc(S(=O)(=O)NCCO)cc4)nc3c2=O)c1 [Example 37, 4-[6-(2-Chloro-phenyl)-7-(3-methoxy-benzyl)-8-oxo-7,8-dihydro-pyrido[3,4-d]pyrimidin-2-ylamino]-N-(2-hydroxy-ethyl)-benzenesulfonamide]
4 | 1 to 500 nM | 1 to 500 nM | 1 to 500 nM | Cc1ccccc1-c1cc2cnc(Nc3ccc(S(=O)(=O)NCCO)cc3)nc2c(=O)n1C [Example 6, N-(2-Hydroxy-ethyl)-4-(7-methyl-8-oxo-6-o-tolyl-7,8-dihydro-pyrido[3,4-d]pyrimidin-2-ylamino)-benzenesulfonamide]
5 | 1 to 500 nM | 1 to 500 nM | 2.9 nM | Cc1ccccc1-c1cc2cnc(Nc3ccc(N4CCOCC4)cc3)nc2c(=O)n1C [Example 1, 7-Methyl-2-(4-morpholin-4-yl-phenylamino)-6-o-tolyl-7H-pyrido[3,4-d]pyrimidin-8-one]
6 | 1 to 500 nM | 1 to 500 nM | 1 to 500 nM | CCN(CC)CCOc1ccc(Nc2ncc3cc(-c4ccccc4C)n(C)c(=O)c3n2)cc1 [Example 7, 2-[4-(2-Diethylamino-ethoxy)-phenylamino]-7-methyl-6-o-tolyl-7H-pyrido[3,4-d]pyrimidin-8-one]
7 | 417 nM | 1 to 500 nM | 1 to 500 nM | Cc1ccccc1-c1cc2cnc(Nc3cccc([S+](C)[O-])c3)nc2c(=O)n1C (stereo not shown) [Example 10, 2-(3-Methanesulfinyl-phenylamino)-7-methyl-6-o-tolyl-7H-pyrido[3,4-d]pyrimidin-8-one]
8 |  | 1 to 500 nM | 1 to 500 nM | Cc1cc(Cn2c(-c3ccccc3Cl)cc3cnc(Nc4cccc([S+](C)[O-])c4)nc3c2=O)nn1C (stereo not shown) [Example 33, 6-(2-Chloro-phenyl)-7-(1,5-dimethyl-1H-pyrazol-3-ylmethyl)-2-(3-methanesulfinyl-phenylamino)-7H-pyrido[3,4-d]pyrimidin-8-one]
9 |  | 1 to 500 nM | 1 to 500 nM | CCN(CC)CCOc1ccc(Nc2ncc3cc(-c4ccccc4Cl)n(Cc4cc(C)n(C)n4)c(=O)c3n2)cc1 [Example 31, 6-(2-Chloro-phenyl)-2-[4-(2-diethylamino-ethoxy)-phenylamino]-7-(1,5-dimethyl-1H-pyrazol-3-ylmethyl)-7H-pyrido[3,4-d]pyrimidin-8-one]
10 | 94 nM | 1 to 500 nM | 1 to 500 nM | Cc1ccccc1-c1cc2cnc(Nc3ccc(N4CCN(C)CC4)cc3)nc2c(=O)n1C [Example 3, 7-Methyl-2-[4-(4-methyl-piperazin-1-yl)-phenylamino]-6-o-tolyl-7H-pyrido[3,4-d]pyrimidin-8-one]
11 |  | 77 nM | 1 to 500 nM | Cc1ccccc1-c1cc2cnc(Nc3ccc(S(=O)(=O)NCCO)cc3)nc2c(=O)n1CC(N)=O [Example 5, 2-{2-[4-(2-Hydroxy-ethylsulfamoyl)-phenylamino]-8-oxo-6-o-tolyl-8H-pyrido[3,4-d]pyrimidin-7-yl}-acetamide]
12 |  | 1 to 500 nM | 1 to 500 nM | COc1cccc(Cn2c(-c3ccccc3C)cc3cnc(Nc4cccc([S+](C)[O-])c4)nc3c2=O)c1 (stereo not shown) [Example 23, 2-(3-Methanesulfinyl-phenylamino)-7-(3-methoxy-benzyl)-6-o-tolyl-7H-pyrido[3,4-d]pyrimidin-8-one]
13 |  | 1 to 500 nM |  | CCN(CC)CCOc1ccc(Nc2ncc3cc(-c4ccccc4C)n(Cc4cccc(OC)c4)c(=O)c3n2)cc1 [Example 22, 2-[4-(2-Diethylamino-ethoxy)-phenylamino]-7-(3-methoxy-benzyl)-6-o-tolyl-7H-pyrido[3,4-d]pyrimidin-8-one]
14 |  | 500 to 15000 nM | 500 to 1500 nM | Cc1ccccc1-c1cc2cnc(NC(CO)CO)nc2c(=O)n1C [Example 4, 2-(2-Hydroxy-1-hydroxymethyl-ethylamino)-7-methyl-6-o-tolyl-7H-pyrido[3,4-d]pyrimidin-8-one]
15 |  | 1 to 500 nM | 1 to 500 nM | COc1cccc(Cn2c(-c3ccccc3C)cc3cnc(Nc4ccc(S(=O)(=O)NCCO)cc4)nc3c2=O)c1 [Example 21, N-(2-Hydroxy-ethyl)-4-[7-(3-methoxy-benzyl)-8-oxo-6-o-tolyl-7,8-dihydro-pyrido[3,4-d]pyrimidin-2-ylamino]-benzenesulfonamide]
16 |  | 214 nM | 1 to 500 nM | Cc1ccccc1-c1cc2cnc(Nc3cccc([S+](C)[O-])c3)nc2c(=O)n1CC(N)=O (stereo not shown) [Example 8, 2-[2-(3-Methanesulfinyl-phenylamino)-8-oxo-6-o-tolyl-8H-pyrido[3,4-d]pyrimidin-7-yl]-acetamide]
17 |  | 500 to 15000 nM | 687 nM | Cc1ccccc1-c1cc2cnc(NC3CCOCC3)nc2c(=O)n1C [Example 12, 7-Methyl-2-(tetrahydro-pyran-4-ylamino)-6-o-tolyl-7H-pyrido[3,4-d]pyrimidin-8-one]
